#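 Tested at 5 concentrations; 48 h exposure; 96-well plates; endpoints linearly interpolated, else capped at highest concentration. GI50: concentration for 50% inhibition of growth. TGI denotes the concentration required for complete inhibition of growth.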
# Key:
# Experiment in all cases: NCI tumour cell line growth inhibition, 48 h
# [1] = system: RXF 393 renal
# [2] = system: SNB-75 CNS
# [3] = system: 786-0 renal
# [4] = system: A498 renal
# [5] = system: A549 NSCLC
# [6] = system: ACHN renal
# [7] = system: BT-549 breast
# [8] = system: CAKI-1 renal
# [9] = system: COLO 205 colon
# [10] = system: DU-145 prostate
# [11] = system: EKVX NSCLC
# [12] = system: HCC-2998 colon
# [13] = system: HCT-116 colon
# [14] = system: HL-60(TB) leukemia
# [15] = system: HOP-62 NSCLC
# [16] = system: HOP-92 NSCLC
# [17] = system: HS 578T breast
# [18] = system: HT29 colon
# [19] = system: IGROV1 ovarian
# [20] = system: K-562 leukemia
# [21] = system: KM12 colon
# [22] = system: LOX IMVI melanoma
# [23] = system: M14 melanoma
# [24] = system: MALME-3M melanoma
# [25] = system: MCF7 breast
# [26] = system: MDA-MB-231 breast
# [27] = system: MDA-MB-435
# [28] = system: MOLT-4 leukemia
# [29] = system: NCI-H226 lung
# [30] = system: NCI-H460 lung
# [31] = system: NCI-H522 lung
# [32] = system: NCI/ADR-RES ovarian
# [33] = system: OVCAR-4 ovarian
# [34] = system: OVCAR-5 ovarian
# [35] = system: OVCAR-8 ovarian
# [36] = system: PC-3 prostate
# [37] = system: RPMI-8226 leukemia
# [38] = system: SF-268 CNS
# [39] = system: SF-295 CNS
# [40] = system: SF-539 CNS
# [41] = system: SK-MEL-2 melanoma
# [42] = system: SK-MEL-28 melanoma
# [43] = system: SK-MEL-5 melanoma
# [44] = system: SK-OV-3 ovarian
# [45] = system: SN12C renal
# [46] = system: SNB-19 CNS
# [47] = system: SR leukemia
# [48] = system: SW-620 colon
# [49] = system: T-47D breast
# [50] = system: TK-10 renal
# [51] = system: U251 CNS
# [52] = system: UACC-257 melanoma
# [53] = system: UACC-62 melanoma
# [54] = system: UO-31 renal
# [55] = system: CCRF-CEM leukemia
# [56] = system: HCT-15 colon
# [57] = system: NCI-H23 lung
structure (smiles),measurement,setting,value
NC(N)=Nc1ccc(Oc2cccc(Oc3ccc(Cl)c(C(F)(F)F)c3)c2)cn1,GI50,[1],1.79 µM
same,TGI,[1],3.43 µM
same,GI50,[2],1.33 µM
same,TGI,[2],2.67 µM
COc1cc(NC2=C(Cl)C(=O)c3nc(C)ccc3C2=O)cc(OC)c1,GI50,[3],1.52 µM
same,TGI,[3],2.88 µM
same,GI50,[4],2.35 µM
same,TGI,[4],11.4 µM
same,GI50,[5],2.83 µM
same,TGI,[5],8.97 µM
same,GI50,[6],1.67 µM
same,TGI,[6],3.04 µM
same,GI50,[7],1.97 µM
same,TGI,[7],3.4 µM
same,GI50,[8],1.76 µM
same,TGI,[8],3.15 µM
same,GI50,[9],1.68 µM
same,TGI,[9],3.08 µM
same,GI50,[10],1.84 µM
same,TGI,[10],3.55 µM
same,GI50,[11],1.6 µM
same,TGI,[11],3.12 µM
same,GI50,[12],1.81 µM
same,TGI,[12],3.26 µM
same,GI50,[13],1.53 µM
same,TGI,[13],2.88 µM
same,GI50,[14],1.38 µM
same,TGI,[14],4.65 µM
same,GI50,[15],4.26 µM
same,TGI,[15],14.1 µM
same,GI50,[16],1.73 µM
same,TGI,[16],3.17 µM
same,GI50,[17],2.43 µM
same,TGI,[17],5.78 µM
same,GI50,[18],1.87 µM
same,TGI,[18],3.48 µM
same,GI50,[19],1.73 µM
same,TGI,[19],3.55 µM
same,GI50,[20],0.381 µM
same,TGI,[20],> 100 µM
same,GI50,[21],13 µM
same,TGI,[21],26.6 µM
same,GI50,[22],1.1 µM
same,TGI,[22],2.32 µM
same,GI50,[23],1.69 µM
same,TGI,[23],3.09 µM
same,GI50,[24],1.76 µM
same,TGI,[24],3.28 µM
same,GI50,[25],1.82 µM
same,TGI,[25],5.33 µM
same,GI50,[26],1.46 µM
same,TGI,[26],3.08 µM
same,GI50,[27],1.72 µM
same,TGI,[27],3.57 µM
same,GI50,[28],1.5 µM
same,TGI,[28],7 µM
same,GI50,[29],2.82 µM
same,TGI,[29],8.35 µM
same,GI50,[30],2.68 µM
same,TGI,[30],8.07 µM
same,GI50,[31],1.56 µM
same,TGI,[31],3.06 µM
same,GI50,[32],1.81 µM
same,TGI,[32],4.47 µM
same,GI50,[33],1.4 µM
same,TGI,[33],2.82 µM
same,GI50,[34],2.38 µM
same,TGI,[34],5.79 µM
same,GI50,[35],1.64 µM
same,TGI,[35],3.28 µM
same,GI50,[36],2.56 µM
same,TGI,[36],10.4 µM
same,GI50,[37],1.79 µM
same,TGI,[37],5.19 µM
same,GI50,[1],1.63 µM
same,TGI,[1],2.99 µM
same,GI50,[38],3.25 µM
same,TGI,[38],14.4 µM
same,GI50,[39],1.99 µM
same,TGI,[39],5.41 µM
same,GI50,[40],1.79 µM
same,TGI,[40],3.22 µM
same,GI50,[41],1.59 µM
same,TGI,[41],3.1 µM
same,GI50,[42],1.79 µM
same,TGI,[42],3.23 µM
same,GI50,[43],1.62 µM
same,TGI,[43],2.97 µM
same,GI50,[44],12.6 µM
same,TGI,[44],25.1 µM
same,GI50,[45],1.71 µM
same,TGI,[45],3.25 µM
same,GI50,[46],5.82 µM
same,TGI,[46],18.8 µM
same,GI50,[2],1.94 µM
same,TGI,[2],5.37 µM
same,GI50,[47],0.35 µM
same,TGI,[47],2.43 µM
same,GI50,[48],1.76 µM
same,TGI,[48],3.47 µM
same,GI50,[49],1.5 µM
same,TGI,[49],3.62 µM
same,GI50,[50],2.32 µM
same,TGI,[50],3.78 µM
same,GI50,[51],1.92 µM
same,TGI,[51],4.44 µM
same,GI50,[52],1.51 µM
same,TGI,[52],2.85 µM
same,GI50,[53],1.77 µM
same,TGI,[53],3.42 µM
same,GI50,[54],1.69 µM
same,TGI,[54],3.06 µM
COc1ccc(-c2nnc(SCc3ccc(O)c4ncccc34)n2-c2ccccc2)cc1,GI50,[3],0.891 µM
same,TGI,[3],9.81 µM
same,GI50,[4],2.23 µM
same,TGI,[4],12.5 µM
same,GI50,[5],0.986 µM
same,TGI,[5],> 60 µM
same,GI50,[7],0.572 µM
same,TGI,[7],17 µM
same,GI50,[8],0.637 µM
same,TGI,[8],4.29 µM
same,GI50,[55],0.424 µM
same,TGI,[55],> 100 µM
same,GI50,[9],6.71 µM
same,TGI,[9],> 100 µM
same,GI50,[10],0.637 µM
same,TGI,[10],> 53.5 µM
same,GI50,[11],1.05 µM
same,TGI,[11],10.3 µM
same,GI50,[12],1.19 µM
same,TGI,[12],> 100 µM
same,GI50,[13],0.361 µM
same,TGI,[13],5.4 µM
same,GI50,[56],0.328 µM
same,TGI,[56],> 100 µM
same,GI50,[14],0.397 µM
same,TGI,[14],3.41 µM
same,GI50,[15],1 µM
same,TGI,[15],16.7 µM
same,GI50,[16],0.231 µM
same,TGI,[16],0.818 µM
same,GI50,[17],0.491 µM
same,TGI,[17],10 µM
same,GI50,[18],4.9 µM
same,TGI,[18],> 100 µM
same,GI50,[19],0.892 µM
same,TGI,[19],25 µM
same,GI50,[20],0.37 µM
same,TGI,[20],> 100 µM
same,GI50,[21],0.619 µM
same,TGI,[21],> 89 µM
same,GI50,[22],0.478 µM
same,TGI,[22],2.62 µM
same,GI50,[23],0.451 µM
same,TGI,[23],2.5 µM
same,GI50,[24],0.968 µM
same,TGI,[24],5.21 µM
same,GI50,[25],0.395 µM
same,TGI,[25],> 100 µM
same,GI50,[26],0.922 µM
same,TGI,[26],26.7 µM
same,GI50,[27],0.468 µM
same,TGI,[27],> 100 µM
same,GI50,[28],0.508 µM
same,TGI,[28],> 100 µM
same,GI50,[29],2.46 µM
same,TGI,[29],98 µM
same,GI50,[57],0.661 µM
same,TGI,[57],30.4 µM
same,GI50,[30],0.385 µM
same,TGI,[30],3.31 µM
same,GI50,[31],0.479 µM
same,TGI,[31],11.1 µM
same,GI50,[32],0.29 µM
same,TGI,[32],5.7 µM
same,GI50,[33],0.739 µM
same,TGI,[33],> 100 µM
same,GI50,[34],3.96 µM
same,TGI,[34],> 100 µM
same,GI50,[35],0.447 µM
same,TGI,[35],96.9 µM
same,GI50,[36],0.526 µM
same,TGI,[36],28.3 µM
same,GI50,[37],0.493 µM
same,TGI,[37],> 100 µM
same,GI50,[1],0.915 µM
same,TGI,[1],11.1 µM
same,GI50,[38],0.605 µM
same,TGI,[38],56.6 µM
same,GI50,[39],0.449 µM
same,TGI,[39],6.84 µM
same,GI50,[40],0.605 µM
same,TGI,[40],5.04 µM
same,GI50,[41],1.16 µM
same,TGI,[41],6.71 µM
same,GI50,[42],0.726 µM
same,TGI,[42],31.3 µM
same,GI50,[43],0.72 µM
same,TGI,[43],3.56 µM
same,GI50,[44],0.745 µM
same,TGI,[44],9.23 µM
same,GI50,[45],0.468 µM
same,TGI,[45],> 100 µM
same,GI50,[46],0.553 µM
same,TGI,[46],> 40.9 µM
same,GI50,[2],0.951 µM
same,TGI,[2],6.13 µM
same,GI50,[47],0.371 µM
same,TGI,[47],> 100 µM
same,GI50,[48],0.438 µM
same,TGI,[48],> 100 µM
same,GI50,[49],0.929 µM
same,TGI,[49],4.2 µM
same,GI50,[50],0.87 µM
same,TGI,[50],7.51 µM
same,GI50,[51],0.389 µM
same,TGI,[51],13.8 µM
same,GI50,[52],1.02 µM
same,TGI,[52],10.7 µM
same,GI50,[53],1.31 µM
same,TGI,[53],4.98 µM

# Source: PubChem BioAssay (NCI)
